# From PubChem BioAssay (NCI)
#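 96-well plates; 48 h exposure; 5 concentrations. Endpoints by linear interpolation between flanking doses. Not reached: highest tested concentration assigned. Here, GI50 denotes the concentration required for 50% inhibition of growth. The concentration for full growth arrest is given as TGI.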
# Columns and labels:
# Assay in all cases: NCI tumour cell line growth inhibition, 48 h
# 786-0 renal = system: 786-0 renal
# A498 renal = system: A498 renal
# A549 NSCLC = system: A549 NSCLC
# ACHN renal = system: ACHN renal
# BT-549 breast = system: BT-549 breast
# CAKI-1 renal = system: CAKI-1 renal
# CCRF-CEM leukemia = system: CCRF-CEM leukemia
# COLO 205 colon = system: COLO 205 colon
# DU-145 prostate = system: DU-145 prostate
# HCC-2998 colon = system: HCC-2998 colon
# HCT-116 colon = system: HCT-116 colon
# HCT-15 colon = system: HCT-15 colon
# HL-60(TB) leukemia = system: HL-60(TB) leukemia
# HOP-62 NSCLC = system: HOP-62 NSCLC
# HOP-92 NSCLC = system: HOP-92 NSCLC
# HS 578T breast = system: HS 578T breast
# HT29 colon = system: HT29 colon
# IGROV1 ovarian = system: IGROV1 ovarian
# K-562 leukemia = system: K-562 leukemia
# KM12 colon = system: KM12 colon
# LOX IMVI melanoma = system: LOX IMVI melanoma
# M14 melanoma = system: M14 melanoma
# MALME-3M melanoma = system: MALME-3M melanoma
# MCF7 breast = system: MCF7 breast
# MDA-MB-231 breast = system: MDA-MB-231 breast
# MDA-MB-435 = system: MDA-MB-435
# MOLT-4 leukemia = system: MOLT-4 leukemia
# NCI-H226 lung = system: NCI-H226 lung
# NCI-H23 lung = system: NCI-H23 lung
# NCI-H460 lung = system: NCI-H460 lung
# NCI-H522 lung = system: NCI-H522 lung
# NCI/ADR-RES ovarian = system: NCI/ADR-RES ovarian
# OVCAR-3 ovarian = system: OVCAR-3 ovarian
# OVCAR-4 ovarian = system: OVCAR-4 ovarian
# OVCAR-5 ovarian = system: OVCAR-5 ovarian
# OVCAR-8 ovarian = system: OVCAR-8 ovarian
# PC-3 prostate = system: PC-3 prostate
# RPMI-8226 leukemia = system: RPMI-8226 leukemia
# RXF 393 renal = system: RXF 393 renal
# SF-268 CNS = system: SF-268 CNS
# SF-295 CNS = system: SF-295 CNS
# SF-539 CNS = system: SF-539 CNS
# SK-MEL-28 melanoma = system: SK-MEL-28 melanoma
# SK-MEL-5 melanoma = system: SK-MEL-5 melanoma
# SK-OV-3 ovarian = system: SK-OV-3 ovarian
# SN12C renal = system: SN12C renal
# SNB-19 CNS = system: SNB-19 CNS
# SNB-75 CNS = system: SNB-75 CNS
# SR leukemia = system: SR leukemia
# SW-620 colon = system: SW-620 colon
# T-47D breast = system: T-47D breast
# TK-10 renal = system: TK-10 renal
# U251 CNS = system: U251 CNS
# UACC-257 melanoma = system: UACC-257 melanoma
# UACC-62 melanoma = system: UACC-62 melanoma
# UO-31 renal = system: UO-31 renal
smiles,measurement,setting,value
CCCCCCC(O)(c1ccc(F)cc1)C(CN1CCOCC1)c1ccccc1 (configuration not stated),GI50,786-0 renal,13.2 µM
same,TGI,786-0 renal,27.3 µM
same,GI50,A498 renal,11.6 µM
same,TGI,A498 renal,30 µM
same,GI50,A549 NSCLC,11.7 µM
same,TGI,A549 NSCLC,29.3 µM
same,GI50,ACHN renal,12.3 µM
same,TGI,ACHN renal,24.9 µM
same,GI50,BT-549 breast,14.7 µM
same,TGI,BT-549 breast,29.6 µM
same,GI50,CAKI-1 renal,12.5 µM
same,TGI,CAKI-1 renal,28.9 µM
same,GI50,CCRF-CEM leukemia,13.9 µM
same,TGI,CCRF-CEM leukemia,32.9 µM
same,GI50,COLO 205 colon,12.1 µM
same,TGI,COLO 205 colon,27 µM
same,GI50,DU-145 prostate,14.6 µM
same,TGI,DU-145 prostate,28.7 µM
same,GI50,HCC-2998 colon,13.8 µM
same,TGI,HCC-2998 colon,29.3 µM
same,GI50,HCT-116 colon,8.53 µM
same,TGI,HCT-116 colon,24.6 µM
same,GI50,HCT-15 colon,11.5 µM
same,TGI,HCT-15 colon,24.7 µM
same,GI50,HL-60(TB) leukemia,12 µM
same,TGI,HL-60(TB) leukemia,31.6 µM
same,GI50,HOP-62 NSCLC,19.2 µM
same,TGI,HOP-62 NSCLC,35.3 µM
same,GI50,HOP-92 NSCLC,12.8 µM
same,TGI,HOP-92 NSCLC,26.1 µM
same,GI50,HS 578T breast,14.8 µM
same,TGI,HS 578T breast,40 µM
same,GI50,HT29 colon,5.37 µM
same,TGI,HT29 colon,19.9 µM
same,GI50,IGROV1 ovarian,12.8 µM
same,TGI,IGROV1 ovarian,41.9 µM
same,GI50,K-562 leukemia,14.9 µM
same,TGI,K-562 leukemia,37.7 µM
same,GI50,KM12 colon,12.4 µM
same,TGI,KM12 colon,28.4 µM
same,GI50,LOX IMVI melanoma,16.2 µM
same,TGI,LOX IMVI melanoma,31.1 µM
same,GI50,M14 melanoma,16.3 µM
same,TGI,M14 melanoma,34.4 µM
same,GI50,MALME-3M melanoma,15 µM
same,TGI,MALME-3M melanoma,33.4 µM
same,GI50,MCF7 breast,11.7 µM
same,TGI,MCF7 breast,24.4 µM
same,GI50,MDA-MB-231 breast,11.4 µM
same,TGI,MDA-MB-231 breast,26.5 µM
same,GI50,MDA-MB-435,15.8 µM
same,TGI,MDA-MB-435,41.7 µM
same,GI50,MOLT-4 leukemia,13.3 µM
same,TGI,MOLT-4 leukemia,32.4 µM
same,GI50,NCI-H226 lung,8.63 µM
same,TGI,NCI-H226 lung,24.8 µM
same,GI50,NCI-H23 lung,11.1 µM
same,TGI,NCI-H23 lung,30.6 µM
same,GI50,NCI-H460 lung,13.4 µM
same,TGI,NCI-H460 lung,29.3 µM
same,GI50,NCI-H522 lung,8.14 µM
same,TGI,NCI-H522 lung,22.3 µM
same,GI50,NCI/ADR-RES ovarian,12.1 µM
same,TGI,NCI/ADR-RES ovarian,34.2 µM
same,GI50,OVCAR-3 ovarian,12.5 µM
same,TGI,OVCAR-3 ovarian,25.4 µM
same,GI50,OVCAR-4 ovarian,14.2 µM
same,TGI,OVCAR-4 ovarian,29.8 µM
same,GI50,OVCAR-5 ovarian,13.8 µM
same,TGI,OVCAR-5 ovarian,26.8 µM
same,GI50,OVCAR-8 ovarian,14.2 µM
same,TGI,OVCAR-8 ovarian,34.8 µM
same,GI50,PC-3 prostate,5.24 µM
same,TGI,PC-3 prostate,21.3 µM
same,GI50,RPMI-8226 leukemia,5.48 µM
same,TGI,RPMI-8226 leukemia,21.7 µM
same,GI50,RXF 393 renal,5.26 µM
same,TGI,RXF 393 renal,19 µM
same,GI50,SF-268 CNS,13 µM
same,TGI,SF-268 CNS,28.4 µM
same,GI50,SF-295 CNS,15.3 µM
same,TGI,SF-295 CNS,31.5 µM
same,GI50,SF-539 CNS,15.6 µM
same,TGI,SF-539 CNS,29.6 µM
same,GI50,SK-MEL-28 melanoma,16.4 µM
same,TGI,SK-MEL-28 melanoma,34.5 µM
same,GI50,SK-MEL-5 melanoma,4.64 µM
same,TGI,SK-MEL-5 melanoma,18.6 µM
same,GI50,SK-OV-3 ovarian,16 µM
same,TGI,SK-OV-3 ovarian,36.7 µM
same,GI50,SN12C renal,12.7 µM
same,TGI,SN12C renal,28.3 µM
same,GI50,SNB-19 CNS,12.8 µM
same,TGI,SNB-19 CNS,27.5 µM
same,GI50,SNB-75 CNS,14.4 µM
same,TGI,SNB-75 CNS,35.9 µM
same,GI50,SR leukemia,11.9 µM
same,TGI,SR leukemia,29.8 µM
same,GI50,SW-620 colon,12.2 µM
same,TGI,SW-620 colon,26.3 µM
same,GI50,T-47D breast,10.4 µM
same,TGI,T-47D breast,23.8 µM
same,GI50,TK-10 renal,18 µM
same,TGI,TK-10 renal,32.8 µM
same,GI50,U251 CNS,12.2 µM
same,TGI,U251 CNS,25.1 µM
same,GI50,UACC-257 melanoma,10.3 µM
same,TGI,UACC-257 melanoma,27.3 µM
same,GI50,UACC-62 melanoma,11.4 µM
same,TGI,UACC-62 melanoma,27.7 µM
same,GI50,UO-31 renal,11.6 µM
same,TGI,UO-31 renal,26.4 µM
